“And” between values parts separate entries of the source, which are not always exact repeats. Equal entries are not always repeated. Where two headings read alike, the source gives them in different places.
Legend:
[1] = DPPH radical scavenging assay; conditions: mean ± SEM of three parallel measurements
Method: (§1) DMSO solutions of four different concentrations (12.5, 25, 50, and 100 μM) of the synthesized compound 1–26 were prepared. DMSO was used as a control, while BHA and α-TOC were used as antioxidant standards.

[2] = target: urease (Canavalia ensiformis, UniProt P07374); test: biochemical
[3] = target: T1, butyrylcholinesterase (BChE) (Equus caballus, UniProt P81908); test: biochemical; conditions: for IC50: mean ± SEM of three parallel measurements
T1 construct: butyrylcholinesterase (BChE) from horse serum; from tissue; host or cells: horse serum
Method: (§2) Anticholinesterase activity of all was performed according to the Ellman’s method using a 96-well microplate reader. Acetylcholinesterase (AChE) from electric eel and butyrylcholinesterase (BChE) from horse serum were used. Acetylthiocholine iodide and butyrylthiocholine chloride were utilized as substrates. DTNB (5,50-dithiobis(2-nitrobenzoic) acid was used as a coloring agent to measure the anticholinesterase activity.[43] Measurements were obtained in triplicate.

[4] = target: T2, Acetylcholinesterase (AChE) (Electrophorus electricus, UniProt O42275); test: biochemical; conditions: for IC50: mean ± SEM of three parallel measurements
T2 construct: Acetylcholinesterase (AChE) from electric eel; from tissue; host or cells: electric eel
Method: as §2

[5] = ABTS cation radical scavenging assay; conditions: mean ± SEM of three parallel measurements
Method: as §1

[6] = CUPRAC assay (Cu(II) reducing power); conditions: concentration at 0.500 absorbance; mean ± SEM
Method: as §1

[7] = target: tyrosinase; type: biochemical; conditions: mean ± SEM of three parallel measurements
[8] = β-carotene-linoleic acid assay (antioxidant); conditions: mean ± SEM of three parallel measurements
Method: as §1

[9] = urease activity IC50, mean ± SEM of three parallel measurements
[10] = Selectivity index: IC50 for AChE/IC50 for BChE
[11] = Selectivity index: IC50 for BChE/IC50 for AChE

T1 sequence (P81908 whole entry): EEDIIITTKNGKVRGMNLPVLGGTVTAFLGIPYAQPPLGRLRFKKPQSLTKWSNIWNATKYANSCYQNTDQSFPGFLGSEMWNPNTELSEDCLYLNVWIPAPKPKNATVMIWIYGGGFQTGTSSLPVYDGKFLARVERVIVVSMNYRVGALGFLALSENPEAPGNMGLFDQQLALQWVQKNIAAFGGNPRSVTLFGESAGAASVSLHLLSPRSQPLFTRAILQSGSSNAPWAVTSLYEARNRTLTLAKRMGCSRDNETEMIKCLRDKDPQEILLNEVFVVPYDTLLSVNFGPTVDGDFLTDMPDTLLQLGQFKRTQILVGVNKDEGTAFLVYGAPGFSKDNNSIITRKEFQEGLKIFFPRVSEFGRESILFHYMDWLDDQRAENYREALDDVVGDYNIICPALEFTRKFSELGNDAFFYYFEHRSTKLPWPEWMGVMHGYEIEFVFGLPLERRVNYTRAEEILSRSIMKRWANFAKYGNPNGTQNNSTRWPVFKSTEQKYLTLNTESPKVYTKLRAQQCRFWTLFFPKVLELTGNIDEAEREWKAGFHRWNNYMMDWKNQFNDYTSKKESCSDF
T2 sequence (O42275 24-633): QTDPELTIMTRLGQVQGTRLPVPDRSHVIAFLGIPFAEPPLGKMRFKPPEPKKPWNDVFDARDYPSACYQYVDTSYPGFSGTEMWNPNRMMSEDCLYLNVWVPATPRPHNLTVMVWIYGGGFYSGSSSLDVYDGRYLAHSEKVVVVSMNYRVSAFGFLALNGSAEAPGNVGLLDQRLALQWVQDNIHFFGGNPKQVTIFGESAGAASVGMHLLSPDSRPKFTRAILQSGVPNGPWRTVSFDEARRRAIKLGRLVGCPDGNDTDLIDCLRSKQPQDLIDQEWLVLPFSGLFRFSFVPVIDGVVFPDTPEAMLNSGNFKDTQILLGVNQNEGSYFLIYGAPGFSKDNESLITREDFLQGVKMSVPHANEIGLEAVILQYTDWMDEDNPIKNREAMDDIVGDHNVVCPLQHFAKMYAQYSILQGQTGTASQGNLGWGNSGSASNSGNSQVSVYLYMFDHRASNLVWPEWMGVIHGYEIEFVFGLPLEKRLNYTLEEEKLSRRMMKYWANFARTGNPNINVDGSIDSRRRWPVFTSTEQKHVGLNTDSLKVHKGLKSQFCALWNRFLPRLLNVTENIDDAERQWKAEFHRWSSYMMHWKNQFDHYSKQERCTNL
urease, sequence (P07374 whole entry, looked up): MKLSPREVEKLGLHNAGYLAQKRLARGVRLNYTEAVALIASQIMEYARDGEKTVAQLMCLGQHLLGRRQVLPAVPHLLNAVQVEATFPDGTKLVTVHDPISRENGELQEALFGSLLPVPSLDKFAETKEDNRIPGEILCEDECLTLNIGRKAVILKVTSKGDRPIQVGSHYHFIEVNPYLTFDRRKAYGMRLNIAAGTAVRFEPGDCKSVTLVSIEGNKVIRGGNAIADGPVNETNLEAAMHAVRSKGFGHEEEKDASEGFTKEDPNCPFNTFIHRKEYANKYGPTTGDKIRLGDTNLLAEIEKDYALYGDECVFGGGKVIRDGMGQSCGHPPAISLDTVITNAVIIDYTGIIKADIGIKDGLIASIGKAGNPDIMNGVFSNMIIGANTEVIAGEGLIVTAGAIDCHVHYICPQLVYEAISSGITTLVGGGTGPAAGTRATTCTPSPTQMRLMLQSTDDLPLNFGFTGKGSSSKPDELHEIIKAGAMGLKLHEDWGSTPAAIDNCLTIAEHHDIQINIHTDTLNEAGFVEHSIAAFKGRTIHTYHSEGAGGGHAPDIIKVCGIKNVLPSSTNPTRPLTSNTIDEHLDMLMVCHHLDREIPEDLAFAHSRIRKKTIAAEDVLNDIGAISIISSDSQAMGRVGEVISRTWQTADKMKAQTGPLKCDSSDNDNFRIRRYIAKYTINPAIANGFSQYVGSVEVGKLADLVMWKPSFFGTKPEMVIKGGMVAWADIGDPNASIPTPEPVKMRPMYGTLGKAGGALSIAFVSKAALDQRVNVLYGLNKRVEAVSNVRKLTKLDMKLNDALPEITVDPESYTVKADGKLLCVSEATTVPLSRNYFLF

| SMILES | IC50 [1] | IC50 [2, 9] | SI for BChE [3, 10] | IC50 [3] | SI for AChE [4, 11] | IC50 [4] | IC50 [5] | CUPRAC assay A0.5 [6] | IC50 [7] | IC50 [8] | SI for BChE [3] | SI for AChE [4] | IC50 ([2]; mean ± SEM of three parallel measurements, read-out: urease activity IC50) |
| --- | --- | --- | --- | --- | --- | --- | --- | --- | --- | --- | --- | --- | --- |
| O=C1C(=Cc2ccccn2)SC(=NN2CCOCC2)N1c1ccccc1 [Compound 21, 2-(Morpholinoimino)-3-phenyl-5-(pyridin-2-ylmethylene)thiazolidin-4-one] | 35.01 ± 0.01 µM | 27.8 ± 0.51 µM | 0.73 | 28.1 ± 0.55 µM | 1.36 | 20.6 ± 1.02 µM | 30.7 ± 0.56 µM | 30.77 ± 0.00 µM | 11200 ± 390 µM | 31.5 ± 0.48 µM |  |  |  |
| COc1ccc(C=C2SC(=NN3CCOCC3)N(c3ccccc3)C2=O)cc1OC [Compound 7, 5-(3,4-Dimethoxy-benzylidene)-2-(morpholinoimino)-3-phenylthiazolidin-4-one] | 43.91 ± 0.29 µM | 54.3 ± 0.62 µM | 0.75 | 40.88 ± 0.16 µM | 1.34 | 30.4 ± 0.47 µM | 31.55 ± 0.22 µM | 34.50 ± 0.01 µM | 27720 ± 240 µM | 38.24 ± 0.13 µM |  |  |  |
| S=C(Nc1ccccc1)NN1CCOCC1 [Compound 1, 1-Morpholino-3-phenylthiyourea] | 253.4 ± 0.6 µM | 82.54 ± 0.29 µM | 1.10 | 118.5 ± 0.34 µM | 0.91 | 130 ± 0.18 µM | 48.9 ± 0.78 µM | 45.18 ± 0.01 µM | 35130 ± 70 µM | 79.37 ± 0.38 µM |  |  |  |
| O=C1C(=Cc2ccc3[nH]ccc3c2)SC(=NN2CCOCC2)N1c1ccccc1 [Compound 25, 5-((1H-Indole-5-yl)methylene)-2-(morpholinoimino)-3-phenylthiazolidin-4-one] | 38.2 ± 0.88 µM | 21.7 ± 0.06 µM | 0.78 | 25.5 ± 0.78 µM | 1.29 | 19.8 ± 0.5 µM | 34.05 ± 0.27 µM | 39.50 ± 0.01 µM | 8400 ± 640 µM | 33.6 ± 0.73 µM |  |  |  |
| O=C1C(=Cc2cccnc2)SC(=NN2CCOCC2)N1c1ccccc1 [Compound 22, 2-(Morpholinoimino)-3-phenyl-5-(pyridin-3-ylmethylene)thiazolidin-4-one] | 34.77 ± 0.22 µM | 26.2 ± 0.47 µM | 0.75 | 33 ± 0.84 µM | 1.33 | 24.8 ± 0.3 µM | 30.11 ± 0.28 µM | 30.42 ± 0.01 µM | 9130 ± 550 µM | 31.6 ± 0.79 µM |  |  |  |
| O=C1C(=Cc2nccs2)SC(=NN2CCOCC2)N1c1ccccc1 [Compound 20] | 35.2 ± 0.6 µM | 16.8 ± 0.19 µM | 0.79 | 34.05 ± 0.06 µM | 1.26 | 26.8 ± 0.77 µM | 31.3 ± 0.77 µM | 36.95 ± 0.03 µM | 21400 ± 310 µM | 32.8 ± 0.33 µM |  |  |  |
| O=C1C(=Cc2ccc(N3CCOCC3)cc2)SC(=NN2CCOCC2)N1c1ccccc1 [Compound 14, 2-(Morfolinoimino)-3-phenyl-5-(4-(morpholin-1-yl)benzylidene)thiazolidine-4-one] | 33.86 ± 0.11 µM | 26.7 ± 0.52 µM | 0.75 | 25.7 ± 1.05 µM | 1.34 | 19.2 ± 0.61 µM | 30.3 ± 0.36 µM | 27.43 ± 0.00 µM | 8100 ± 220 µM | 26.31 ± 0.03 µM |  |  |  |
| O=C1C(=Cc2ccncc2)SC(=NN2CCOCC2)N1c1ccccc1 [Compound 23, 2-(Morpholinoimino)-3-phenyl-5-(pyridin-4-ylmethylene)thiazolidin-4-one] | 36.14 ± 0.16 µM | 25 ± 0.54 µM | 0.78 | 25.4 ± 0.26 µM | 1.29 | 19.7 ± 0.54 µM | 32.72 ± 0.19 µM | 31.12 ± 0.00 µM | 8050 ± 110 µM | 34.6 ± 0.5 µM |  |  |  |
| Cn1cccc1C=C1SC(=NN2CCOCC2)N(c2ccccc2)C1=O [Compound 19] | 34.45 ± 0.05 µM | 18.2 ± 0.5 µM | 0.69 | 29.7 ± 0.72 µM | 1.44 | 20.6 ± 0.55 µM | 29.88 ± 0.2 µM | 25.67 ± 0.00 µM | 19280 ± 90 µM | 30.8 ± 0.47 µM |  |  |  |
| CN(C)c1ccc(C=C2SC(=NN3CCOCC3)N(c3ccccc3)C2=O)cc1 [Compound 10] | 37.43 ± 0.29 µM | 49.3 ± 0.55 µM | 0.71 | 37.53 ± 0.2 µM | 1.42 | 26.48 ± 0.25 µM | 30.1 ± 0.69 µM | 28.65 ± 0.00 µM | 25000 ± 670 µM | 34.23 ± 0.2 µM |  |  |  |
| O=C1C(=Cc2ccc(N(CCCl)CCCl)cc2)SC(=NN2CCOCC2)N1c1ccccc1 [Compound 11] | 24.6 ± 0.8 µM | 31.5 ± 0.49 µM |  | 32.8 ± 0.48 µM |  | 21.45 ± 0.06 µM | 23.2 ± 0.34 µM | 11.82 ± 0.00 µM | 23400 ± 500 µM | 11.9 ± 1.3 µM | 0.66 | 1.53 |  |
| Cc1cc(C(C)(C)C)c(O)c(C(C)(C)C)c1 [BHT, butylated hydroxytoluene, reference compound] | 55 ± 0.99 µM |  |  |  |  |  | 2.91 ± 0.55 µM | 3.80 ± 0.02 µM |  | 2.34 ± 0.09 µM |  |  |  |
| O=C1C(=Cc2ccc(N3CCCCC3)cc2)SC(=NN2CCOCC2)N1c1ccccc1 [Compound 13, 2-(Morpholinoimino)-3-phenyl-5-(4-(piperidin-1-yl)benzylidene)thiazolidine-4-one] | 29 ± 0.29 µM | 30.3 ± 0.95 µM | 0.62 | 32.21 ± 0.11 µM | 1.61 | 20 ± 0.37 µM | 27.16 ± 0.06 µM | 23.66 ± 0.02 µM | 26200 ± 1110 µM | 20.2 ± 0.14 µM |  |  |  |
| O=C1C(=Cc2ccccc2)SC(=NN2CCOCC2)N1c1ccccc1 [Compound 3, 5-(Benzylidene)-2-(morpholinoimino)-3-phenylthiazolidine-4-one] | 52.13 ± 0.29 µM | 56.8 ± 0.15 µM | 0.70 | 48.72 ± 0.18 µM | 1.42 | 34.2 ± 0.63 µM | 31.59 ± 0.04 µM | 35.89 ± 0.01 µM | 29400 ± 490 µM | 39.8 ± 0.67 µM |  |  |  |
| O=C1C(=Cc2ccc(N3CCCC3)cc2)SC(=NN2CCOCC2)N1c1ccccc1 [Compound 12, 2-(Morpholinoimino)-3-phenyl-5-(4-(pyrrolidin-1-yl)benzylidene)thiazolidine-4-one] | 26.1 ± 0.44 µM | 24.2 µM and 23.6 µM | 0.71 | 24.4 ± 0.51 µM | 1.40 | 17.4 ± 0.22 µM | 24.7 ± 0.25 µM | 20.77 ± 0.03 µM | 24800 ± 770 µM | 16.2 ± 0.66 µM |  |  |  |
| O=C1C(=Cc2ccc([N+](=O)[O-])cc2)SC(=NN2CCOCC2)N1c1ccccc1 [Compound 9, 5-(4-Nitrobenzylidene)-2-(morpholinoimino)-3-phenylthiazolidin-4-one] | 32.3 ± 0.55 µM | 51.7 ± 0.12 µM | 0.74 | 40.19 ± 0.19 µM | 1.35 | 29.8 ± 0.81 µM | 25.2 ± 0.37 µM | 21.87 ± 0.01 µM | 25420 ± 120 µM | 30.44 ± 0.17 µM |  |  |  |
| O=C1C(=Cc2ccc(O)cc2)SC(=NN2CCOCC2)N1c1ccccc1 [Compound 5, 5-(4-Hydroxybenzaldehyde)-2-(morpholinoimino)-3 phenylthiazolidine-4-one] | 42.8 ± 0.53 µM | 55.6 ± 0.81 µM | 0.73 | 37.1 ± 0.57 µM | 1.38 | 27 ± 0.48 µM | 28.74 ± 0.19 µM | 24.48 ± 0.02 µM | 28000 ± 350 µM | 36.2 ± 0.46 µM |  |  |  |
| O=C1CSC(=NN2CCOCC2)N1c1ccccc1 [Compound 2, 2-(Morpholinoimino)-3-phenylthiazolidin-4-one] | 101.9 ± 0.61 µM | 65.4 ± 0.67 µM | 0.67 | 66.44 ± 0.41 µM | 1.50 | 44.3 ± 0.75 µM | 31.66 ± 0.13 µM | 36.35 ± 0.00 µM | 30200 ± 610 µM | 40.43 ± 0.11 µM |  |  |  |
| COc1cc(C=C2SC(=NN3CCOCC3)N(c3ccccc3)C2=O)cc(OC)c1OC [Compound 8, 5-(3,4,5-(Trimethoxy)benzylidene)-2-(morpholinoimino)-3-phenylthiazolidin-4-one] | 44.06 ± 0.21 µM | 53.4 ± 0.64 µM | 0.71 | 47.3 ± 0.77 µM | 1.41 | 33.61 ± 0.33 µM | 32.95 ± 0.28 µM | 35.13 ± 0.03 µM | 25700 ± 390 µM | 36.5 ± 0.39 µM |  |  |  |
| O=C1C(=Cc2ccco2)SC(=NN2CCOCC2)N1c1ccccc1 [Compound 15, 5-(Furan-2-ylmethylene)-2-(morpholinoimino)-3-phenylthiazolidin-4-one] | 35.05 ± 0.29 µM | 46.4 ± 1.08 µM | 0.73 | 37.6 ± 0.61 µM | 1.37 | 27.4 ± 0.76 µM | 32.2 ± 0.87 µM | 31.24 ± 0.00 µM | 5190 ± 30 µM | 29.7 ± 0.34 µM |  |  |  |
| Cc1c(C)c2c(c(C)c1O)CC[C@@](C)(CCC[C@H](C)CCC[C@H](C)CCCC(C)C)O2 [α-TOC, reference compound] | 12.26 ± 0.07 µM |  |  |  |  |  | 4.87 ± 0.45 µM | 40.48 ± 0.02 µM |  | 4.5 ± 0.09 µM |  |  |  |
| NC(N)=S [thiourea, reference compound] |  |  |  |  |  |  |  |  |  |  |  |  | 24.2 ± 0.3 µM |
